Source: US20240400564A1 (Syndax Pharmaceuticals, Inc, priority 2021, published 2024)

These molecules were tested on MLLr leukemia cell line MV4-11 (assay: Cell proliferation assay MV4;11 (CellTiter-Glo, 72 hours)). Conditions: Homo sapiens; MV4-11 cells, 72 hours, CellTiter-Glo; read-out: MV4; 11 IC50.
Format: cell-based
Description: Compounds were evaluated for its capacity to inhibit the proliferation of the MLLr leukemia cell line MV4-11 that harbors an MLL1-AF4 fusion protein. MV4-11 cells were cultured for 72 hours with limiting dilutions of compounds and viability was measured using CellTiter-Glo.
Compounds were dissolved to obtain as 10 mM solution in DMSO. The stock was diluted 1:5 to the top concentration of 2 mM in 100% DMSO. For IC50 determination, serial 1:3.16 dilutions were prepared in 100% DMSO by diluting 20 μL into 43.5 μL of DMSO for 8 concentrations. Each prepared DMSO solution were further diluted 1:500 in the cell culture media to obtain the 2× dosing solutions. The final concentrations of tested compounds in the cell culture media ranged from 0.632 nM to 2000 nM.
MV4-11 cells were cultured in IMDM with 10% FBS and 1× Penicillin-Streptomycin at 5% CO2 and 37° C. A cell suspension was prepared containing 15,000 cells/ml in the culture medium and 100 μL of this suspension was added per well to a 96-well cell culture plate. Then, 100 μL of 2× dosing media containing test compounds were added bringing the total volume to 200 μL. These cells were cultured for 72 hours at 37° C. and 5% CO2 in a humidified incubator.
After 72 hours, the cultured cells were mixed and 100 μL was transferred to a 96-well black plate. Cell Titer Glo (100 μl) was then added to this plate. The plate was mixed with shaking for 15 mins at RT, the luminescence was then measured using Tecan Spark 20M spectrophotometer. Cell Viability (%) was determined by RLU of test/RLU average vehicle control*100 and % max inhibition was determined by 100−(% cell viability remaining at the top concentration of compound).

Compound	IC50
CCn1cc(S(=O)(=O)N[C@@H]2CC[C@@H](CN3CCC4(CC3)CN(c3ncncc3Oc3ccc(F)cc3C(=O)N(CC(F)F)C(C)C)C4)OC2)cn1 [Example 106, N-(2,2-Difluoroethyl)-2-((4-(7-(((2S,5R)-5-((1-ethyl-1H-pyrazole)-4-sulfonamido)tetrahydro-2H-pyran-2-yl)methyl)-2,7-diazaspiro[3.5]nonan-2-yl)pyrimidin-5-yl)oxy)-5-fluoro-N-isopropylbenzamide]	< 100 nM
CC(C)N(C(=O)c1cc(F)ccc1Oc1cncnc1N1CC2(CCN(C[C@@H]3CC[C@@H](NS(C)(=O)=O)CO3)CC2)C1)C1CC(F)(F)C1 [Example 112, N-(3,3-Difluorocyclobutyl)-5-fluoro-N-isopropyl-2-((4-(7-(((2S,5R)-5-(methylsulfonamido)tetrahydro-2H-pyran-2-yl)methyl)-2,7-diazaspiro[3.5]nonan-2-2-yl)pyrimidin-5-yl)oxy)benzamide]	< 100 nM
Cc1nc(S(=O)(=O)N[C@@H]2CC[C@@H](CN3CCC4(CC3)CN(c3ncncc3Oc3ccc(F)cc3C(=O)N(C(C)C)[C@@H]3CCOC3)C4)OC2)cs1 [Example 133, 5-Fluoro-N-isopropyl-2-((4-(7-(((2S,5R)-5-((2-methylthiazole)-4-sulfonamido)tetrahydro-2H-pyran-2-yl)methyl)-2,7-diazaspiro[3.5]nonan-2-yl)pyrimidin-5-yl)oxy)-N-((R)-tetrahydrofuran-3-yl)benzamide]	< 100 nM
Cc1nc(S(=O)(=O)N[C@@H]2CC[C@@H](CN3CCC4(CC3)CN(c3ncncc3Oc3ccc(F)cc3C(=O)N(C(C)C)[C@H]3CCOC3)C4)OC2)cs1 [Example 135, 5-Fluoro-N-isopropyl-2-((4-(7-(((2S,5R)-5-((2-methylthiazole)-4-sulfonamido)tetrahydro-21H-pyran-2-yl)methyl)-2,7-diazaspiro[3.5]nonan-2-yl)pyrimidin-5-yl)oxy)-N-((S)-tetrahydrofuran-3-yl)benzamide]	< 100 nM

The next lines start with the values.

IC50	Compound
100 to 1000 nM	CC(C)N(C)C(=O)c1cc(F)ccc1Oc1cncnc1N1CC2(CCN(C[C@@H]3CC[C@@H](NS(=O)(=O)c4cnn(C)c4)CO3)CC2)C1 [Example 139, 5-Fluoro-N-isopropyl-N-methyl-2-((4-(7-(((2S,5R)-5-((1-methyl-1H-pyrazole)-4-sulfonamido)tetrahydro-2H-pyran-2-yl)methyl)-2,7-diazaspiro[3.5]nonan-2-yl)pyrimidin-5-yl)oxy)benzamide]
< 100 nM	CC(C)N(CC(F)F)C(=O)c1cc(F)ccc1Oc1nncnc1N1CC2(CCN(C[C@@H]3CC[C@@H](NS(=O)(=O)c4cnn(C)c4)CO3)CC2)C1 [Example 187, N-(2,2-Difluoroethyl)-5-fluoro-N-isopropyl-2-((5-(7-(((2S,5R)-5-((1-methyl-1H-pyrazole)-4-sulfonamido)tetrahydro-2H-pyran-2-yl)methyl)-2,7-diazaspiro[3.5]nonan-2-yl)-1,2,4-triazin-6-yl)oxy)benzamide]
< 100 nM	CC(C)N(CC(F)(F)F)C(=O)c1cc(F)ccc1Oc1nncnc1N1CC2(CCN(C[C@@H]3CC[C@@H](NS(=O)(=O)c4cnn(C)c4)CO3)CC2)C1 [Example 192, 5-Fluoro-N-isopropyl-2-((5-(7-(((2R,5S)-5-((1-methyl-1H-pyrazole)-4-sulfonamido)tetrahydro-2H-pyran-2-yl)methyl)-2,7-diazaspiro[3.5]nonan-2-yl)-1,2,4-triazin-6-yl)oxy)-N-(2,2,2-trifluoroethyl)benzamide]
< 100 nM	CC(C)N(C(=O)c1cc(F)ccc1Oc1nncnc1N1CC2(CCN(C[C@@H]3CC[C@@H](NS(=O)(=O)c4cnn(C)c4)CO3)CC2)C1)C(C)C [Example 197, 5-Fluoro-N,N-diisopropyl-2-((5-(7-(((2S,5R)-5-((1-methyl-1H-pyrazole)-4-sulfonamido)tetrahydro-2H-pyran-2-yl)methyl)-2,7-diazaspiro[3.5]nonan-2-yl)-1,2,4-triazin-6-yl)oxy)benzamide]
